Where two headings read alike, the source gives them in different places.
Experiments:
[1] = Compound stability in human liver microsomes; type: in vitro ADME; settings: pH 7.4; for half-life at 5 μM: human liver microsomes 0.5 mg protein/mL, compound 5 μM, NADPH 1.0 mM, 37° C., read-out: Human T1/2; for CLint scaled at 5 μM: human liver microsomes, in vivo CLint extrapolated
Method: (§1) Human or rat liver microsomes incubations were conducted in duplicate in polypropylene tubes. The typical incubation mixtures consisted of human or rat liver microsomes (0.5 mg protein/mL), compounds of interest (5 μM) and NADPH (1.0 mM) in a total volume of 200 μL potassium phosphate buffer (PBS, 100 mM, pH 7.4). Compounds were dissolved in DMSO and diluted with PBS such that the final concentration of DMSO was 0.05%. The enzymatic reactions were commenced with the addition of protein after a 3-min preincubation and incubated in a water bath open to the air at 37° C. Reactions were terminated at various time points (0, 5, 10, 15, 30, 60 min) by adding equal volume of ice-cold acetonitrile. The samples were stored at −80° C. until LC/MS/MS assays.
(§2) The concentrations of compounds in the incubation mixtures of human or rat liver microsomes were determined by a LC/MS/MS method. The ranges of the linearity in the concentration range were determined for each tested compounds.
(§3) A parallel incubation was performed using denatured microsomes as the negative control, and reactions were terminated at various time points (0, 15, 60 min) after incubation at 37° C.
(§4) Dextromethorphan (70 μM) was selected as the positive control, and reactions were terminated at various time points (0, 5, 10, 15, 30, 60 min) after incubation at 37° C. Both positive and negative control samples were included in each assay to ensure the integrity of the microsomal incubation system.
(§5) The concentrations of compounds in human or rat liver microsome incubations were plotted as a percentage of the relevant zero time point control for each reaction. The in vivo CLint were extrapolated (ref.: Naritomi, Y.; Terashita, S.; Kimura, S.; Suzuki, A.; Kagayama, A.; and Sugiyama, Y.; Prediction of human hepatic clearance from in vivo animal experiments and in vitro metabolic studies with liver microsomes from animals and humans. Drug Metab. Dispos., 2001, 29: 1316-1324).

[2] = Compound stability in rat liver microsomes; type: in vitro ADME; settings: pH 7.4; for half-life at 5 μM: rat liver microsomes 0.5 mg protein/mL, compound 5 μM, NADPH 1.0 mM, 37° C., read-out: Rat T1/2; for CLint scaled at 5 μM: rat liver microsomes, in vivo CLint extrapolated
Method: as §1, §2, §3, §4, §5

[3] = Pharmacokinetics after intravenous and oral administration in rats; type: in vivo; settings: for F: oral bioavailability; for AUC(0-t) / half-life / Vd: rat, plasma; for Vd: read-out: Vss
Method: The compounds disclosed herein are assessed in pharmacokinetic studies in mice, rats, dogs or monkeys. The compounds are administered as a water solution, 2% HPMC+1% TWEEN®80 in water solution, 5% DMSO+5% solutol in saline, 4% MC suspension or capsule. For the intravenous administration, the animals are generally given at 0.5, 1 or 2 mg/kg dose. For the oral (p.o.) dosing, mice and rats are generally given 0.5, 1, 5 or 10 mg/kg dose, and dogs and monkeys are generally given 10 mg/kg dose. The blood samples (0.3 mL) are drawn at 0.25, 0.5, 1.0, 2.0, 3.0, 4.0, 6.0, 8.0, 12 and 24 h time points or 0.083, 0.25, 0.5, 1.0, 2.0, 4.0, 6.0, 8.0 and 24 h time points and centrifuged at 3,000 or 4000 rpm for 2 to 10 min. The plasma solutions are collected, and stored at −20° C. or −70° C. until analyzed by LC/MS/MS as described above.

| Structure (SMILES) | half-life at 5 μM [1] [h] | CLint scaled at 5 μM [1] [mL/min/kg] | half-life at 5 μM [2] [h] | CLint scaled at 5 μM [2] [mL/min/kg] | Clearance (CL) after iv dosing ([3]; iv dosing, dose 1 mg/kg) [mL/min/kg] | F ([3]; iv dose 1 mg/kg) [%] | AUC(0-t) ([3]; iv dosing, dose 1 mg/kg) [ng·h/mL] | half-life ([3]; iv dosing, dose 1 mg/kg) [h] | Vd ([3]; iv dosing, dose 1 mg/kg) [L/kg] | Cl/F ([3]; iv dosing, dose 1 mg/kg) [mL/min/kg] | Clearance (CL) after iv dosing ([3]; iv dosing, dose 0.5 mg/kg) [mL/min/kg] | F ([3]; iv dose 0.5 mg/kg) [%] | AUC(0-t) ([3]; iv dosing, dose 0.5 mg/kg) [ng·h/mL] | half-life ([3]; iv dosing, dose 0.5 mg/kg) [h] | Vd ([3]; iv dosing, dose 0.5 mg/kg) [L/kg] |
| --- | --- | --- | --- | --- | --- | --- | --- | --- | --- | --- | --- | --- | --- | --- | --- |
| N#CCC(=O)N1CC2CC(Nc3nc(Nc4cnn(C5CCCNC5)c4)ncc3Cl)CC2C1 (centres unmarked) [Ex. 3, 3-(5-((5-chloro-2-((1-(piperidin-3-yl)-1H-pyrazol-4-yl)amino)pyrimidin-4-yl)amino)hexahydrocyclopenta[c]pyrrol-2(1H)-yl)-3-oxopropanenitrile] | 9.24 | 3.13 | 0.0647 | 639 | – | – | – | – | – | – | – | – | – | – | – |
| N#CCC(=O)N1CC2CC(Nc3nc(Nc4cnn(C5CCNCC5)c4)ncc3Cl)CC2C1 (centres unmarked) [Ex. 5, 3-(5-((5-chloro-2-((1-(piperidin-4-yl)-1H-pyrazol-4-yl)amino)pyrimidin-4-yl)amino)hexahydrocyclopenta[c]pyrrol-2(1H)-yl)-3-oxopropanenitrile] | 17.4 | 1.66 | – | – | – | – | – | – | – | – | – | – | – | – | – |
| Cn1cc(Nc2ncc(Cl)c(NC3CCC4(CC3)CCN(C(=O)C3CC3)CC4)n2)cn1 [Ex. 22, (9-((5-chloro-2-((1-methyl-1H-pyrazol-4-yl)amino)pyrimidin-4-yl)amino)-3-azaspiro[5.5]undecan-3-yl)(cyclopropyl)methanone] | 1.09 | 26.5 | 0.0555 | 745 | 22.3 | 84.6 | 746 | 0.56 | 1.21 | – | – | – | – | – | – |
| CC(=O)N1CC2CC(Nc3nc(Nc4cnn(C5CCCNC5)c4)ncc3Cl)CC2C1 (centres unmarked) [Ex. 4, 1-(5-((5-chloro-2-((1-(piperidin-3-yl)-1H-pyrazol-4-yl)amino)pyrimidin-4-yl)amino)hexahydrocyclopenta[c]pyrrol-2(1H)-yl)ethanone] | 15.9 | 1.83 | 1.15 | 36.1 | – | – | – | – | – | – | – | – | – | – | – |
| CC(=O)N1CCC2(CCC(Nc3nc(Nc4cnn(C5CCNCC5)c4)ncc3Cl)CC2)CC1 [Ex. 33, 1-(9-((5-chloro-2-((1-(piperidin-4-yl)-1H-pyrazol-4-yl)amino)pyrimidin-4-yl)amino)-3-azaspiro[5.5]undecan-3-yl)ethanone] | 4.58 | 6.32 | 5.36 | 7.73 | – | – | – | – | – | – | – | – | – | – | – |
| Cn1cc(Nc2ncc(Cl)c(NC3CCC4(CC3)CCN(CC(C)(C)O)CC4)n2)cn1 [Ex. 21, 1-(9-((5-chloro-2-((1-methyl-1H-pyrazol-4-yl)amino)pyrimidin-4-yl)amino)-3-azaspiro[5.5]undecan-3-yl)-2-methylpropan-2-ol] | 6.73 | 4.3 | 1.05 | 39.5 | 109 | 118.2 | 147 | 1.46 | 11.9 | – | – | – | – | – | – |
| CC(=O)N1CC2CC(CC#N)(Nc3nc(Nc4cnn(C)c4)ncc3Cl)CC2C1 (centres unmarked) [Ex. 48, 2-(2-acetyl-5-((5-chloro-2-((1-methyl-1H-pyrazol-4-yl)amino)pyrimidin-4-yl)amino)octahydrocyclopenta[c]pyrrol-5-yl)acetonitrile] | 5.17 | 5.6 | 1.67 | 24.8 | 34.7 | 40.7 | 485 | 0.72 | 0.81 | – | – | – | – | – | – |
| CC(C)(O)Cn1cc(Nc2ncc(Cl)c(NC3CC4CN(C(=O)NC5CC5)CC4C3)n2)cn1 (centres unmarked) [Ex. 36, 5-((5-chloro-2-((1-(2-hydroxy-2-methylpropyl)-1H-pyrazol-4-yl)amino)pyrimidin-4-yl)amino)-N-cyclopropylhexahydrocyclopenta[c]pyrrole-2(1H)-carboxamide] | 1.15 | 25.1 | 0.511 | 81 | – | – | – | – | – | – | – | – | – | – | – |
| Cn1cc(Nc2ncc(Cl)c(NC3CCC4(CC3)CCN(S(=O)(=O)C3CC3)CC4)n2)cn1 | 1.02 | 28.5 | 0.501 | 82.7 | – | 64.4 | 363 | 0.62 | 2.07 | 46.3 | – | – | – | – | – |
| Cn1cc(Nc2ncc(Cl)c(NC3CCC4(CC3)CCN(C(=O)CC3CC3)CC4)n2)cn1 [Ex. 20, 1-(9-((5-chloro-2-((1-methyl-1H-pyrazol-4-yl)amino)pyrimidin-4-yl)amino)-3-azaspiro[5.5]undecan-3-yl)-2-cyclopropyl ethanone] | – | – | – | – | – | – | – | – | – | – | 24.7 | 91.2 | 348 | 0.7 | 1.07 |
| CC(O)Cn1cc(Nc2nccc(NC3CC4CN(C(=O)NC5CC5)CC4C3)n2)cn1 (centres unmarked) [Ex. 42, N-cyclopropyl-5-((2-((1-(2-hydroxypropyl)-1H-pyrazol-4-yl)amino)pyrimidin-4-yl)amino)hexahydrocyclopenta[c]pyrrole-2(1H)-carboxamide] | 2.56 | 11.3 | 6.24 | 6.6 | – | – | – | – | – | – | – | – | – | – | – |

Second part, led by results:

| half-life at 5 μM [1] [h] | CLint scaled at 5 μM [1] [mL/min/kg] | half-life at 5 μM [2] [h] | CLint scaled at 5 μM [2] [mL/min/kg] | Clearance (CL) after iv dosing ([3]; iv dosing, dose 1 mg/kg) [mL/min/kg] | F ([3]; iv dose 1 mg/kg) [%] | AUC(0-t) ([3]; iv dosing, dose 1 mg/kg) [ng·h/mL] | half-life ([3]; iv dosing, dose 1 mg/kg) [h] | Vd ([3]; iv dosing, dose 1 mg/kg) [L/kg] | Structure (SMILES) | Cl/F ([3]; iv dosing, dose 1 mg/kg) [mL/min/kg] | Clearance (CL) after iv dosing ([3]; iv dosing, dose 0.5 mg/kg) [mL/min/kg] | F ([3]; iv dose 0.5 mg/kg) [%] | AUC(0-t) ([3]; iv dosing, dose 0.5 mg/kg) [ng·h/mL] | half-life ([3]; iv dosing, dose 0.5 mg/kg) [h] | Vd ([3]; iv dosing, dose 0.5 mg/kg) [L/kg] |
| --- | --- | --- | --- | --- | --- | --- | --- | --- | --- | --- | --- | --- | --- | --- | --- |
| – | – | – | – | 75.3 | 19.5 | 235 | 0.3 | 1.22 | COc1ccc(-n2cc(Nc3ncc(Cl)c(NC4CC5CN(C(C)=O)CC5C4)n3)cn2)cn1 (centres unmarked) [Ex. 11, 1-(5-((5-chloro-2-((1-(6-methoxypyridin-3-yl)-1H-pyrazol-4-yl)amino)pyrimidin-4-yl)amino)hexahydrocyclopenta[c]pyrrol-2(1H)-yl)ethanone] | – | – | – | – | – | – |
| 0.524 | 55.3 | 0.27 | 153 | 31 | 36.9 | 558 | 0.56 | 1.55 | CC(=O)N1CC2CC(Nc3nc(Nc4cnn(-c5ccccn5)c4)ncc3Cl)CC2C1 (centres unmarked) [Ex. 8, 1-(5-((5-chloro-2-((1-(pyridin-2-yl)-1H-pyrazol-4-yl)amino)pyrimidin-4-yl)amino)hexahydrocyclopenta[c]pyrrol-2(1H)-yl)ethanone] | – | – | – | – | – | – |
| 11 | 2.63 | 44 | 0.94 | – | – | – | – | – | CC(=O)N1CC2CC(Nc3nc(Nc4cnn(C5CCNCC5)c4)ncc3Cl)CC2C1 (centres unmarked) [Ex. 6, 1-(5-((5-chloro-2-((1-(piperidin-4-yl)-1H-pyrazol-4-yl)amino)pyrimidin-4-yl)amino)hexahydrocyclopenta[c]pyrrol-2(1H)-yl)ethanone] | – | – | – | – | – | – |
| 0.403 | 72 | 0.06 | 690 | 99.2 | 42.0 | 168 | 0.38 | 1.99 | Cn1cc(Nc2ncc(Cl)c(NC3CC4CN(C(=O)Nc5ccccc5)CC4C3)n2)cn1 (centres unmarked) [Ex. 28, 5-((5-chloro-2-((1-methyl-1H-pyrazol-4-yl)amino)pyrimidin-4-yl)amino)-N-phenylhexahydrocyclopenta[c]pyrrole-2(1H)-carboxamide] | – | – | – | – | – | – |
| – | – | – | – | 77.7 | 22.5 | 218 | 0.22 | 0.93 | Cn1cc(Nc2ncc(Cl)c(NC3CC4CN(C(=O)c5ccccc5)CC4C3)n2)cn1 (centres unmarked) [Ex. 27, (5-((5-chloro-2-((1-methyl-1H-pyrazol-4-yl)amino)pyrimidin-4-yl)amino)hexahydrocyclopenta[c]pyrrol-2(1H)-yl)(phenyl)methanone] | – | – | – | – | – | – |
